The values that follow come from patent publication US11041000B2, “Peptide inhibitors of interleukin-23 receptor and their use to treat inflammatory diseases” (priority 2019, dated 2021).

Molecules are shown by their SMILES. Numbered stars: 1 amine (or outer) side, 2 acyl side, 3 side chain; on linkers, the order of the positions; unused ones are H or OH. Bridge positions count the residues as written; N and C are the ends. Square brackets hold non-standard residues; d marks the D form. Peptide text beside a SMILES is read from it. Trp(7-Me) = Cc1cccc2c(C[C@H](N)C(=O)O)c[nH]c12; Abu(4-yl) = O=C([C@H](CC[*:3])N[*:1])[*:2]; 2Nal = N[C@@H](Cc1ccc2ccccc2c1)C(=O)O; AEF = NCCOc1ccc(C[C@H](N)C(=O)O)cc1; αMeF = C[C@](N)(Cc1ccccc1)C(=O)O; Cit = NC(=O)NCCC[C@H](N)C(=O)O; Pen = CC(C)(S)[C@H](N)C(=O)O; αMeK = C[C@](N)(CCCCN)C(=O)O; Dab = NCC[C@H](N)C(=O)O; Sar = CNCC(=O)O

Holding throughout (format): in vitro ADME
The nature of data set [1]: Stability in cynomolgus monkey fecal homogenate. The following applies: 20% fecal homogenate (supernatant), pH 6.8, 20% cynomolgus monkey fecal homogenate, anaerobic, 37° C., read-out: t½: Monkey Feces anaerobic (converted). As for the experimental part: (§1) Centrifuged the homogenate at 2800×g for 15 min. The supernatant is taken out and used for incubations. […] The final test compound concentration was 20 μM.

Data set [2] is described as follows: Stability in simulated intestinal fluid (SIF). To be noted: simulated intestinal fluid with pancreatin, pH 6.8, 37° C., matrix is 100 fold dilution of standard SIF concentration; for half-life at 20 μM: read-out: SIF t½ (converted); for SIF t½: 20 μM.
Procedure: SIF was prepared by adding 6.8 g of monobasic potassium phosphate and 10.0 g of pancreatin to 1.0 L of water. After dissolution, the pH was adjusted to 6.8 using NaOH. DMSO stocks (2 mM) were first prepared for the test compounds. Aliquots of the DMSO solutions were dosed into 6 individual tubes, each containing 0.5 mL of SIF, which is pre-warmed to 37° C. The final test compound concentration was 20 μM. The vials were kept in a benchtop Thermomixer® for the duration of the experiment. At each timepoint (0, 5, 10, 20, 40, 60, or 360 minutes or 24 hours), 1.0 mL of acetonitrile containing 1% formic acid was added to one vial to terminate the reaction. Samples were stored at 4° C. until the end of the experiment. After the final timepoint is sampled, the tubes were mixed and then centrifuged at 3,000 rpm for 10 minutes. Aliquots of the supernatant were removed, diluted 1:1 into distilled water containing internal standard, and analyzed by LCMS/MS. Percent remaining at each timepoint was calculated based on the peak area response ratio of test to compound to internal standard. Time 0 was set to 100%, and all later timepoints were calculated relative to time 0. Half-lives were calculated by fitting to a first-order exponential decay equation using Graphpad.
A short description of data set [3]: Stability in human fecal homogenate. The following applies: 20% fecal homogenate (supernatant), pH 6.8, 20% human fecal homogenate, anaerobic, 37° C., read-out: t½: Human Feces anaerobic (converted). As to the method:
as §1

The nature of data set [4]: Stability in rat plasma. The following applies: both sexes, SD rat plasma, EDTA, 37° C., read-out: t½: Rat Plasma EDTA (converted).

For `CC(=O)NCCCC[C@@H]1NC(=O)[C@H](Cc2c[nH]c3c(C)cccc23)NC(=O)[C@H]([C@@H](C)O)NC(=O)[C@H](CCC(N)=O)NC(=O)[C@@H](NC(=O)[C@@H](CCCNC(=N)N)NC(C)=O)CCSC[C@@H](C(=O)N[C@@H](Cc2ccc(OCCN)cc2)C(=O)N[C@@H](Cc2ccc3ccccc3c2)C(=O)N[C@@](C)(CCCCN)C(=O)N[C@@H](CCCCNC(C)=O)C(=O)N[C@@H](CC(N)=O)C(=O)N[C@H](CCCCN)C(=O)N(C)CC(N)=O)NC1=O` [compound 323] (Ac-[dR][Abu(4-yl)]QT[Trp(7-Me)]K(Ac)C[AEF][2Nal][αMeK]K(Ac)N[dK][Sar]-NH2; thioether 2-7), the half-life at 20 μM in data set [1] was 780 min; in data set [2] it was 1200 min; in data set [3] it was more than 1440 min; in data set [4], more than 1440 min.
Turning to `CC(=O)NCCCC[C@@H]1NC(=O)[C@H](Cc2c[nH]c3c(C)cccc23)NC(=O)[C@H]([C@@H](C)O)NC(=O)[C@H](CCC(N)=O)NC(=O)[C@@H](NC(=O)[C@@H](CCCNC(=N)N)NC(C)=O)CCSC[C@@H](C(=O)N[C@@H](Cc2ccc(OCCN)cc2)C(=O)N[C@@H](Cc2ccc3ccccc3c2)C(=O)N[C@@](C)(CCCCN)C(=O)N[C@@H](CCCCNC(C)=O)C(=O)N[C@@H](CC(N)=O)C(=O)N[C@H](CCCCN)C(N)=O)NC1=O` [compound 324] (Ac-[dR][Abu(4-yl)]QT[Trp(7-Me)]K(Ac)C[AEF][2Nal][αMeK]K(Ac)N[dK]-NH2; thioether 2-7), the half-life at 20 μM in data set [1] was 780 min; in data set [2], 780 min; in data set [3], more than 1440 min; in data set [4], more than 1440 min.
For `CC(=O)NCCCC[C@@H]1NC(=O)[C@H](Cc2c[nH]c3c(C)cccc23)NC(=O)[C@H]([C@@H](C)O)NC(=O)[C@H](CCC(N)=O)NC(=O)[C@@H](NC(=O)[C@@H](CCCNC(=N)N)NC(C)=O)CCSC[C@@H](C(=O)N[C@@H](Cc2ccc(OCCN)cc2)C(=O)N[C@@H](Cc2ccc3ccccc3c2)C(=O)N[C@@](C)(CCCCN)C(=O)N[C@@H](CCCCNC(C)=O)C(=O)N[C@@H](CC(N)=O)C(=O)N[C@@](C)(Cc2ccccc2)C(N)=O)NC1=O` [compound 327] (Ac-[dR][Abu(4-yl)]QT[Trp(7-Me)]K(Ac)C[AEF][2Nal][αMeK]K(Ac)N[αMeF]-NH2; thioether 2-7), the half-life at 20 μM in data set [1] is 1440 min; in data set [3] it was more than 1440 min; in data set [4], more than 1440 min. The “SIF t½” value in data set [2] was 24 h.
On to `CC(=O)NCCCC[C@@H]1NC(=O)[C@H](Cc2c[nH]c3c(C)cccc23)NC(=O)[C@H]([C@@H](C)O)NC(=O)[C@H](C)NC(=O)[C@@H](NC(C)=O)C(C)(C)SSC(C)(C)[C@@H](C(=O)N[C@@H](Cc2ccc(OCCN)cc2)C(=O)N[C@@H](Cc2ccc3ccccc3c2)C(=O)N[C@@](C)(CCCCN)C(=O)N[C@@H](CCCCNC(C)=O)C(=O)N[C@@H](CC(N)=O)C(=O)N[C@H](CC(C)C)C(N)=O)NC1=O` [compound 328] (Ac-[Pen]AT[Trp(7-Me)]K(Ac)[Pen][AEF][2Nal][αMeK]K(Ac)N[dL]-NH2; disulfide 1-6), for which the half-life at 20 μM in data set [1] is more than 1440 min; in data set [2] it was 1380 min; in data set [3], more than 1440 min; in data set [4], more than 1440 min.
For `CC(=O)NCCCC[C@@H]1NC(=O)[C@H](Cc2c[nH]c3c(C)cccc23)NC(=O)[C@H]([C@@H](C)O)NC(=O)CNC(=O)[C@@H](NC(C)=O)C(C)(C)SSC(C)(C)[C@@H](C(=O)N[C@@H](Cc2ccc(OCCN)cc2)C(=O)N[C@@H](Cc2ccc3ccccc3c2)C(=O)N[C@@](C)(CCCCN)C(=O)N[C@@H](CCCCNC(C)=O)C(=O)N[C@@H](CC(N)=O)C(=O)N[C@H](CC(C)C)C(N)=O)NC1=O` [compound 329] (Ac-[Pen]GT[Trp(7-Me)]K(Ac)[Pen][AEF][2Nal][αMeK]K(Ac)N[dL]-NH2; disulfide 1-6), the half-life at 20 μM in data set [1] is more than 1440 min; in data set [2], 720 min; in data set [3], more than 1440 min; in data set [4], more than 1440 min.
Consider `CC(=O)NCCCC[C@@H]1NC(=O)[C@H](Cc2c[nH]c3c(C)cccc23)NC(=O)[C@H]([C@@H](C)O)NC(=O)[C@H](CCCCNC(C)=O)NC(=O)[C@@H](NC(C)=O)C(C)(C)SSC(C)(C)[C@@H](C(=O)N[C@@H](Cc2ccc(OCCN)cc2)C(=O)N[C@@H](Cc2ccc3ccccc3c2)C(=O)N[C@@](C)(CCCCN)C(=O)N[C@@H](CCCCNC(C)=O)C(=O)N[C@@H](CC(N)=O)C(=O)N[C@H](CC(C)C)C(N)=O)NC1=O` [compound 330] (Ac-[Pen]K(Ac)T[Trp(7-Me)]K(Ac)[Pen][AEF][2Nal][αMeK]K(Ac)N[dL]-NH2; disulfide 1-6), for which the half-life at 20 μM in data set [1], in data set [3] and in data set [4] was more than 1440 min each time. For the same compound, the “SIF t½” value in data set [2] is 24 h.
Turning to `CC(=O)NCCCC[C@@H]1NC(=O)[C@H](Cc2c[nH]c3c(C)cccc23)NC(=O)[C@H]([C@@H](C)O)NC(=O)[C@H](CCCNC(N)=O)NC(=O)[C@@H](NC(C)=O)C(C)(C)SSC(C)(C)[C@@H](C(=O)N[C@@H](Cc2ccc(OCCN)cc2)C(=O)N[C@@H](Cc2ccc3ccccc3c2)C(=O)N[C@@](C)(CCCCN)C(=O)N[C@@H](CCCCNC(C)=O)C(=O)N[C@@H](CC(N)=O)C(=O)N[C@H](CC(C)C)C(N)=O)NC1=O` [compound 331] (Ac-[Pen][Cit]T[Trp(7-Me)]K(Ac)[Pen][AEF][2Nal][αMeK]K(Ac)N[dL]-NH2; disulfide 1-6), the half-life at 20 μM in data set [1] is more than 1440 min; in data set [2], 900 min; in data set [3] it was more than 1440 min; in data set [4], more than 1440 min.
Regarding `CC(=O)NCCCC[C@@H]1NC(=O)[C@H](Cc2c[nH]c3c(C)cccc23)NC(=O)[C@H]([C@@H](C)O)NC(=O)[C@H](CC(C)C)NC(=O)[C@@H](NC(C)=O)C(C)(C)SSC(C)(C)[C@@H](C(=O)N[C@@H](Cc2ccc(OCCN)cc2)C(=O)N[C@@H](Cc2ccc3ccccc3c2)C(=O)N[C@@](C)(CCCCN)C(=O)N[C@@H](CCCCNC(C)=O)C(=O)N[C@@H](CC(N)=O)C(=O)N[C@H](CC(C)C)C(N)=O)NC1=O` [compound 332] (Ac-[Pen]LT[Trp(7-Me)]K(Ac)[Pen][AEF][2Nal][αMeK]K(Ac)N[dL]-NH2; disulfide 1-6), the half-life at 20 μM in data set [1], in data set [3] and in data set [4] was more than 1440 min in each case. In data set [2], the “SIF t½” value is 24 h.
Regarding `CC(=O)NCCCC[C@@H]1NC(=O)[C@H](Cc2c[nH]c3c(C)cccc23)NC(=O)[C@H]([C@@H](C)O)NC(=O)[C@@H]2CCCN2C(=O)[C@@H](NC(C)=O)C(C)(C)SSC(C)(C)[C@@H](C(=O)N[C@@H](Cc2ccc(OCCN)cc2)C(=O)N[C@@H](Cc2ccc3ccccc3c2)C(=O)N[C@@](C)(CCCCN)C(=O)N[C@@H](CCCCNC(C)=O)C(=O)N[C@@H](CC(N)=O)C(=O)N[C@H](CC(C)C)C(N)=O)NC1=O` [compound 333] (Ac-[Pen]PT[Trp(7-Me)]K(Ac)[Pen][AEF][2Nal][αMeK]K(Ac)N[dL]-NH2; disulfide 1-6), the half-life at 20 μM in data set [1] was 1440 min; in data set [2] it was 1320 min; in data set [3], more than 1440 min; in data set [4] it was more than 1440 min.
With `CC(=O)NCCCC[C@@H]1NC(=O)[C@H](Cc2c[nH]c3c(C)cccc23)NC(=O)[C@H]([C@@H](C)O)NC(=O)[C@H](CO)NC(=O)[C@@H](NC(C)=O)C(C)(C)SSC(C)(C)[C@@H](C(=O)N[C@@H](Cc2ccc(OCCN)cc2)C(=O)N[C@@H](Cc2ccc3ccccc3c2)C(=O)N[C@@](C)(CCCCN)C(=O)N[C@@H](CCCCNC(C)=O)C(=O)N[C@@H](CC(N)=O)C(=O)N[C@H](CC(C)C)C(N)=O)NC1=O` [compound 334] (Ac-[Pen]ST[Trp(7-Me)]K(Ac)[Pen][AEF][2Nal][αMeK]K(Ac)N[dL]-NH2; disulfide 1-6), the half-life at 20 μM in data set [1], in data set [3] and in data set [4] was more than 1440 min throughout. The “SIF t½” value in data set [2] is 24 h.
`CC(=O)NCCCC[C@@H]1NC(=O)[C@H](Cc2c[nH]c3c(C)cccc23)NC(=O)[C@H]([C@@H](C)O)NC(=O)[C@H](CCNC(C)=O)NC(=O)[C@@H](NC(C)=O)C(C)(C)SSC(C)(C)[C@@H](C(=O)N[C@@H](Cc2ccc(OCCN)cc2)C(=O)N[C@@H](Cc2ccc3ccccc3c2)C(=O)N[C@@](C)(CCCCN)C(=O)N[C@@H](CCCCNC(C)=O)C(=O)N[C@@H](CC(N)=O)C(=O)N[C@H](CC(C)C)C(N)=O)NC1=O` [compound 335] (Ac-[Pen][Dab](Ac)T[Trp(7-Me)]K(Ac)[Pen][AEF][2Nal][αMeK]K(Ac)N[dL]-NH2; disulfide 1-6): the half-life at 20 μM is more than 1440 min in data set [1], 1200 min in data set [2], more than 1440 min in data set [3] and more than 1440 min in data set [4].
Turning to `CC(=O)NCCCC[C@@H]1NC(=O)[C@H](Cc2c[nH]c3c(C)cccc23)NC(=O)[C@H]([C@@H](C)O)NC(=O)[C@H](CCCNC(=N)N)NC(=O)[C@@H](NC(C)=O)C(C)(C)SSC(C)(C)[C@@H](C(=O)N[C@@H](Cc2ccc(OCCN)cc2)C(=O)N[C@@H](Cc2ccc3ccccc3c2)C(=O)N[C@@](C)(CCCCN)C(=O)N[C@@H](CCCCNC(C)=O)C(=O)N[C@@H](CC(N)=O)C(=O)N[C@H](CC(C)C)C(N)=O)NC1=O` [compound 336] (Ac-[Pen]RT[Trp(7-Me)]K(Ac)[Pen][AEF][2Nal][αMeK]K(Ac)N[dL]-NH2; disulfide 1-6), the half-life at 20 μM is more than 1440 min in data set [1], 600 min in data set [2], more than 1440 min in data set [3] and more than 1440 min in data set [4].
